Legend:
[1] = biological target: T1, GST-tagged KRAS G12D (2-169) (Homo sapiens, UniProt P01116, G12D); assay: Nucleotide exchange assay (NEA), HTRF of SOS-mediated GTP-DY-647P1 binding; assay type: biochemical; conditions: 5 nM GST-KRAS G12D, 20 nM SOScat, 150 nM GTP; compound 1 h at RT
T1 construct: GST-tagged KRAS^G12D (2-169, Reaction Biology, MSC-11-539); purchased Reaction Biology MSC-11-539 (KRAS G12D); MSC-11-502 (SOS1cat)
Method in brief: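 SOS1cat (564-1049)-driven loading of GTP-DY-647P1 onto KRAS G12D, read by HTRF with anti-GST Tb cryptate donor; compound preincubated with KRAS 1 h at RT. Final 5 nM KRAS, 20 nM SOScat, 150 nM GTP, pH 7.3 HEPES buffer; read up to 90 min at RT. Blanked to no-SOS1; 4-parameter fit of % inhibition.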

[2] = biological target: T2, KRAS G12D/RAF1 (Homo sapiens, UniProt P01116, G12D); assay: Protein-protein interaction (PPI) HTRF assay KRAS G12D/RAF1; assay type: binding; conditions: KRAS G12D/RAF1, GppNHp-loaded KRAS; 30 minutes pre-incubation
T2 construct: KRAS (1-169) proteins were expressed in E. coli at 18° C; His6-MBP (N, cleaved yes); made in house; host or cells: E. coli
Method in brief: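 Biotinylated GppNHp-loaded RAS (1-169) on streptavidin-d2 acceptor and His-RAF1 RBD (52-131) on anti-His Tb donor, each prepared at 16 nM in pH 7.5 Tris buffer. Compound preincubated with RAS 30 min, then RAF1 added for 1 h at room temperature. IC50 from HTRF 665/615 ratio, normalized to no compound (0%) and untagged RAF1 (100%).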

T1 sequence (P01116 2-169 isoform P01116-2 G12D): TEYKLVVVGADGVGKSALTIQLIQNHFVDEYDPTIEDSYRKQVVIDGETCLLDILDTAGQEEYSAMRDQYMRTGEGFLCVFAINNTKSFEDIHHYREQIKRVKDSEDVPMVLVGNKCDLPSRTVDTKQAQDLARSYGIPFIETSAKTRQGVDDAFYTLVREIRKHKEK
T2 sequence (P01116 1-169 isoform P01116-2 G12D): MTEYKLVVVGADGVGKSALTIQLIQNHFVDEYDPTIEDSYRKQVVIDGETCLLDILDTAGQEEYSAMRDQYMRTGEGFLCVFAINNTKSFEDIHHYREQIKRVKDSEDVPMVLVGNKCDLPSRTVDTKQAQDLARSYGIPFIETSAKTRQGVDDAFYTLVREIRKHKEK

Compound	IC50 [1] [µM]	IC50 [2] [µM]
OC1CCCN(c2nc(OC[C@@]34CCCN3C[C@H](F)C4)nc3c2COC2(CCc4c(Cl)cccc42)C3)CC1 (mixture of isomers) [Compound 6, 1-[4′-chloro-2-[[rac-(2R,8S)-2-fluoro-1,2,3,5,6,7-hexahydropyrrolizin-8-yl]methoxy]spiro[5,8-dihydropyrano[4,3-d]pyrimidine-7,1′-indane]-4-yl]azepan-4-ol]	1 to 20	> 100
CN(C)C(=O)c1cc2n(n1)CCCN(c1nc(OC[C@@]34CCCN3C[C@H](F)C4)nc3c1COC1(CCCc4c(Cl)cc(O)cc41)C3)C2 (mixture of isomers) [Compound 43, 5-[5′-chloro-7′-hydroxy-2-[[rac-(2R,8S)-2-fluoro-1,2,3,5,6,7-hexahydropyrrolizin-8-yl]methoxy]spiro[5,8-dihydropyrano[4,3-d]pyrimidine-7,1′-tetralin]-4-yl]-N,N-dimethyl-4,6,7,8-tetrahydropyrazolo[1,5-a][1,4]diazepine-2-carboxamide]	0.01 to 0.1	10 to 100
C=C1CN2CCCC2(COc2nc3c(c(N4CCCn5nc(C(=O)N(C)C)c(Cl)c5C4)n2)CO[C@@]2(CCc4c(Cl)cccc42)C3)C1 (mixture of isomers) [Compound 54, 3-chloro-N,N-dimethyl-5-[rac-(7S)-4′-chloro-2-[(6-methylene-2,3,5,7-tetrahydro-1H-pyrrolizin-8-yl)methoxy]spiro[5,8-dihydropyrano[4,3-d]pyrimidine-7,1′-indane]-4-yl]-4,6,7,8-tetrahydropyrazolo[1,5-a][1,4]diazepine-2-carboxamide]	< 0.01	10 to 100
Oc1ccc2c(c1)C1(CCC2)Cc2nc(OC[C@@]34CCCN3C[C@H](F)C4)nc(N3CCCCCC3)c2CO1 (single isomer, unassigned) [Compound 7]	1 to 20	> 100
Oc1ccc2c(c1)C1(CCC2)Cc2nc(OC[C@@]34CCCN3C[C@H](F)C4)nc(N3CCCCCC3)c2CO1 (single isomer, unassigned) [Compound 8]	0.1 to 1	> 100
O=C1NC(=O)C2(CCCN(c3nc(OC[C@@]45CCCN4C[C@H](F)C5)nc4c3COC3(CCc5c(Cl)cccc53)C4)C2)N1 (single isomer, unassigned) [Compound 24A, (5*)-9-[(7*)-4′-chloro-2-[[(2R,8S)-2-fluoro-1,2,3,5,6,7-hexahydropyrrolizin-8-yl]methoxy]spiro[5,8-dihydropyrano[4,3-d]pyrimidine-7,1′-indane]-4-yl]-1,3,9-triazaspiro[4.5]decane-2,4-dione]	0.01 to 0.1	10 to 100
F[C@H]1CN2CCC[C@@]2(COc2nc3c(c(N4CCCCCC4)n2)COC2(CCc4c(Cl)cccc42)C3)C1 (stereo partly drawn) [Compound 1, 4′-(azepan-1-yl)-4-chloro-2′-(((2R,7aS)-2-fluorotetrahydro-1H-pyrrolizin-7a(5H)-yl)methoxy)-2,3,5′,8′-tetrahydrospiro[indene-1,7′-pyrano[4,3-d]pyrimidine]]	1 to 20	> 100
F[C@H]1CN2CCC[C@@]2(COc2nc3c(c(N4C[C@H]5CC[C@@H](C4)N5)n2)COC2(CCc4c(Cl)cccc42)C3)C1 (stereo partly drawn) [Compound 2, 4′-((1R,5S)-3,8-diazabicyclo[3.2.1]octan-3-yl)-4-chloro-2′-(((2R,7aS)-2-fluorotetrahydro-1H-pyrrolizin-7a(5H)-yl)methoxy)-2,3,5′,8′-tetrahydrospiro[indene-1,7′-pyrano[4,3-d]pyrimidine]]	0.01 to 0.1	10 to 100
OC1CCCN(c2nc(OC[C@@]34CCCN3C[C@H](F)C4)nc3c2COC2(CCCc4ccc(Br)cc42)C3)CC1 (stereo partly drawn) [Compound 4, 1-[7′-bromo-2-[[(2R,8S)-2-fluoro-1,2,3,5,6,7-hexahydropyrrolizin-8-yl]methoxy]spiro[5,8-dihydropyrano[4,3-d]pyrimidine-7,1′-tetralin]-4-yl]azepan-4-ol]	1 to 20	> 100
